# Where “and” joins values, the source holds several entries; their conditions need not be identical. Equal values may be shown once.
# System: C. elegans
# Test: C. elegans motor phenotype scoring on solid media (Punc/jerky-unc, coiled, paralyzed), wild-type young adults
# Assay type: in vivo, Caenorhabditis elegans
# Details: for any phene, mean % fraction of young adults exhibiting any phenotype (coiled, jerky-Unc or paralyzed) / atypical locomotion (number of animals) / coiled (number of animals) / no phene (number of animals) / paralyzed (number of animals): one hour; for any phene, mean % fraction of young adults exhibiting any phenotype (coiled, jerky-Unc or paralyzed): mean of three biological replicates; for atypical locomotion (number of animals) / coiled (number of animals) / no phene (number of animals) / paralyzed (number of animals): young adults, 20 animals per trial, single replicate counts; for AVERAGES Fraction Coiled / AVERAGES Fraction Paralyzed / AVERAGES Fraction Punc: average of 3 replicates
# [1] = 15 μM, 30 min, single replicate
# [2] = 15 μM, 60 min, single replicate
# [3] = 15 μM, 90 min, single replicate
# [4] = 15 μM, 120 min, single replicate
# [5] = 15 μM, 240 min, single replicate
# [6] = 15 μM, 360 min, single replicate
# [7] = 30 μM, 30 min, single replicate
# [8] = 30 μM, 60 min, single replicate
# [9] = 30 μM, 90 min, single replicate
compound,measurement,setting,value
O=[N+]([O-])c1ccc(N2CCN(CC3CC=CCC3)CC2)cc1 (centres unmarked) [Nemacol-4],"any phene, mean % fraction of young adults exhibiting any phenotype (coiled, jerky-Unc or paralyzed)",3.75uM,15%
same,atypical locomotion (number of animals),3.75uM,0 and 4 and 11
same,coiled (number of animals),3.75uM,0 and 1
same,no phene (number of animals),3.75uM,20 and 14 and 8
same,paralyzed (number of animals),3.75uM,0 and 1
same,AVERAGES Fraction Coiled,"15 μM, 30 min",0.0
same,AVERAGES Fraction Paralyzed,"15 μM, 30 min",0.0
same,AVERAGES Fraction Punc,"15 μM, 30 min",0.222
same,C1 (number of animals),[1],0
same,C2 (number of animals),[1],0
same,Fraction Coiled,[1],0.0
same,Fraction Paralyzed,[1],0.0
same,Fraction Punc,[1],0.111 and 0.4
same,NP (number of animals),[1],16 and 11
same,P (number of animals),[1],0
same,Punc (number of animals),[1],2 and 7
same,AVERAGES Fraction Coiled,"15 μM, 60 min",0.0185
same,AVERAGES Fraction Paralyzed,"15 μM, 60 min",0.0
same,AVERAGES Fraction Punc,"15 μM, 60 min",0.426
same,C1 (number of animals),[2],1
same,C2 (number of animals),[2],0
same,Fraction Coiled,[2],0.0556
same,Fraction Paralyzed,[2],0.0
same,Fraction Punc,[2],0.4 and 0.6
same,NP (number of animals),[2],10 and 7
same,P (number of animals),[2],0
same,Punc (number of animals),[2],7 and 11
same,AVERAGES Fraction Coiled,"15 μM, 90 min",0.0
same,AVERAGES Fraction Paralyzed,"15 μM, 90 min",0.0
same,AVERAGES Fraction Punc,"15 μM, 90 min",0.352
same,C1 (number of animals),[3],0
same,C2 (number of animals),[3],0
same,Fraction Coiled,[3],0.0
same,Fraction Paralyzed,[3],0.0
same,Fraction Punc,[3],0.5
same,NP (number of animals),[3],9
same,P (number of animals),[3],0
same,Punc (number of animals),[3],9
same,AVERAGES Fraction Coiled,"15 μM, 120 min",0.0185
same,AVERAGES Fraction Paralyzed,"15 μM, 120 min",0.0
same,AVERAGES Fraction Punc,"15 μM, 120 min",0.3
same,C1 (number of animals),[4],0
same,C2 (number of animals),[4],0
same,Fraction Coiled,[4],0.0
same,Fraction Paralyzed,[4],0.0
same,Fraction Punc,[4],0.333 and 0.4
same,NP (number of animals),[4],12 and 11
same,P (number of animals),[4],0
same,Punc (number of animals),[4],6 and 7
same,AVERAGES Fraction Coiled,"15 μM, 240 min",0.0185
same,AVERAGES Fraction Paralyzed,"15 μM, 240 min",0.0
same,AVERAGES Fraction Punc,"15 μM, 240 min",0.0741
same,C1 (number of animals),[5],1
same,C2 (number of animals),[5],0
same,Fraction Coiled,[5],0.0556
same,Fraction Paralyzed,[5],0.0
same,Fraction Punc,[5],0.0 and 0.167
same,NP (number of animals),[5],15
same,P (number of animals),[5],0
same,Punc (number of animals),[5],0 and 3
same,AVERAGES Fraction Coiled,"15 μM, 360 min",0.0
same,AVERAGES Fraction Paralyzed,"15 μM, 360 min",0.0
same,AVERAGES Fraction Punc,"15 μM, 360 min",0.0
same,C1 (number of animals),[6],0
same,C2 (number of animals),[6],0
same,Fraction Coiled,[6],0.0
same,Fraction Paralyzed,[6],0.0
same,Fraction Punc,[6],0.0
same,NP (number of animals),[6],18
same,P (number of animals),[6],0
same,Punc (number of animals),[6],0
same,Next Day Animals alive (moving fine),"15 μM, next day, single replicate","alive, recovered"
same,"any phene, mean % fraction of young adults exhibiting any phenotype (coiled, jerky-Unc or paralyzed)",15uM,45%
same,atypical locomotion (number of animals),15uM,4 and 2 and 5 and 8
same,coiled (number of animals),15uM,0 and 1 and 6 and 3
same,no phene (number of animals),15uM,16 and 15 and 17 and 18 and 0
same,paralyzed (number of animals),15uM,0 and 9
same,AVERAGES Fraction Coiled,"30 μM, 30 min",0.0556
same,AVERAGES Fraction Paralyzed,"30 μM, 30 min",0.0
same,AVERAGES Fraction Punc,"30 μM, 30 min",0.6
same,C1 (number of animals),[7],0 and 2
same,C2 (number of animals),[7],1 and 0
same,Fraction Coiled,[7],0.0556 and 0.0 and 0.111
same,Fraction Paralyzed,[7],0.0
same,Fraction Punc,[7],0.6 and 0.444 and 0.7
same,NP (number of animals),[7],6 and 10 and 3
same,P (number of animals),[7],0
same,Punc (number of animals),[7],11 and 8 and 13
same,AVERAGES Fraction Coiled,"30 μM, 60 min",0.0752
same,AVERAGES Fraction Paralyzed,"30 μM, 60 min",0.0
same,AVERAGES Fraction Punc,"30 μM, 60 min",0.7
same,C1 (number of animals),[8],0
same,C2 (number of animals),[8],3 and 1 and 0
same,Fraction Coiled,[8],0.167 and 0.0588 and 0.0
same,Fraction Paralyzed,[8],0.0
same,Fraction Punc,[8],0.7 and 0.529 and 0.9
same,NP (number of animals),[8],2 and 7 and 1
same,P (number of animals),[8],0
same,Punc (number of animals),[8],13 and 9 and 17
same,AVERAGES Fraction Coiled,"30 μM, 90 min",0.0556
same,AVERAGES Fraction Paralyzed,"30 μM, 90 min",0.0556
same,AVERAGES Fraction Punc,"30 μM, 90 min",0.667
same,C1 (number of animals),[9],0
same,C2 (number of animals),[9],1 and 2 and 0
same,Fraction Coiled,[9],0.0556 and 0.111 and 0.0
same,Fraction Paralyzed,[9],0.167 and 0.0
same,Fraction Punc,[9],0.7 and 0.5 and 0.8
same,NP (number of animals),[9],1 and 7 and 4
same,P (number of animals),[9],3 and 0
same,Punc (number of animals),[9],13 and 9 and 14

# Reference: publication PMC10066365, “Nemacol is a small molecule inhibitor of C. elegans vesicular acetylcholine transporter with anthelmintic potential” (Nature Communications, 2023)
